What all share (format): cell-based
Test [1] has as its target T1, Tyrosine-protein kinase JAK1 (Homo sapiens, UniProt P23458). In words: Induction of JAK1 degradation in human Jurkat cells at 1 uM incubated for 6 hrs by Western blot analysis.
Test [2] deals with T2, Non-receptor tyrosine-protein kinase TYK2 (Homo sapiens, UniProt P29597). In words: Induction of TYK2 degradation in human Jurkat cells incubated for 24 hrs.
The target of test [3] is T2, Non-receptor tyrosine-protein kinase TYK2. The test can be described thus: Induction of TYK2 degradation in human Jurkat cells at 1 uM incubated for 24 hrs relative to control.
Test [4] concerns the target T1, Tyrosine-protein kinase JAK1. The test can be described thus: Induction of JAK1 degradation in human Jurkat cells incubated for 24 hrs.
The target is the same in test [5]. In words: Induction of JAK1 degradation in human Jurkat cells at 1 uM incubated for 24 hrs relative to control.
Test [6] addresses Tyrosine-protein kinase JAK2 (Homo sapiens) (UniProt O60674). The test can be described thus: Induction of JAK2 degradation in human Jurkat cells at 1 uM incubated for 6 hrs by Western blot analysis.
In test [7] the target is T3, Tyrosine-protein kinase JAK3 (Homo sapiens) (UniProt P52333).
T3 sequence (whole entry): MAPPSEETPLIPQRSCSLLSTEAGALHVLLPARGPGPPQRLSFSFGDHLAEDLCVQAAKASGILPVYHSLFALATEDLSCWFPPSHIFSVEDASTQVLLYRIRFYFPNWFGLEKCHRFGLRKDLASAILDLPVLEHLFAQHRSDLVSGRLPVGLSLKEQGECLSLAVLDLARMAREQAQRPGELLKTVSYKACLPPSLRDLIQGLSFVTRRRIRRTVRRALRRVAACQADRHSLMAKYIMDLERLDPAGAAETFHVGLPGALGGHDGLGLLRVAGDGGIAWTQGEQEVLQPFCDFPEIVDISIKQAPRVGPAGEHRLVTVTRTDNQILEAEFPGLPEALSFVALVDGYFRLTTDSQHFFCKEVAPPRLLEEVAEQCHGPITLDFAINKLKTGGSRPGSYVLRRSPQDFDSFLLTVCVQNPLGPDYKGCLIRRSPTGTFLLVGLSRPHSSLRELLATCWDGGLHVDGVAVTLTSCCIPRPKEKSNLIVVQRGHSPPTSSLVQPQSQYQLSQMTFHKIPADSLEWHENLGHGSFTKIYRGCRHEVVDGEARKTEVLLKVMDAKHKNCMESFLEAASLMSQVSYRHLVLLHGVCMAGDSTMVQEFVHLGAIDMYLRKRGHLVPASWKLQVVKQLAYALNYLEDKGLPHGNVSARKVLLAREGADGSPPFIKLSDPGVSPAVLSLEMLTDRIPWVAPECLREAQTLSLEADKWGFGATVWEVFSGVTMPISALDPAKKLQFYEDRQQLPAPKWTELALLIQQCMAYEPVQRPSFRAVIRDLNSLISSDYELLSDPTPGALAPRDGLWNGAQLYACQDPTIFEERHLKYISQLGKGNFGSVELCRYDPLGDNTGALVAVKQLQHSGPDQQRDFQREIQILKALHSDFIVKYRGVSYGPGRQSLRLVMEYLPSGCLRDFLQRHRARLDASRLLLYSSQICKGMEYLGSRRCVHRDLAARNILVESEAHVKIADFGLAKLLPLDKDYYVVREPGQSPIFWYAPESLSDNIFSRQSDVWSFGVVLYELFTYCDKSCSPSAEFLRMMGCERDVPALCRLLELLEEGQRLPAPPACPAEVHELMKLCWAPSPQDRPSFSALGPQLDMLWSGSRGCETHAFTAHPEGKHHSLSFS
In words: Induction of JAK3 degradation in human Jurkat cells at 1 uM incubated for 6 hrs by Western blot analysis.

The target of test [8] is T2, Non-receptor tyrosine-protein kinase TYK2. The test can be described thus: Induction of TYK2 degradation in human Jurkat cells at 10 uM incubated for 24 hrs by Western blot analysis.
For test [9] the target is unchanged. The test can be described thus: Induction of TYK2 degradation in human Jurkat cells at 100 nM incubated for 24 hrs relative to control.
In test [10] the target is T1, Tyrosine-protein kinase JAK1. In words: Induction of JAK1 degradation in human Jurkat cells at 10 uM incubated for 24 hrs relative to control.
The target in test [11] is T2, Non-receptor tyrosine-protein kinase TYK2. The test can be described thus: Induction of TYK2 degradation in human Jurkat cells at 1 uM incubated for 24 hrs in presence of 6-(5-fluoropyridin-2-ylamino)-4-(2-methoxy-3-(methylcarbamoyl)phenylamino)-N-methylnicotinamide by Western blot analysis.
For test [12] the target is unchanged. In words: Induction of TYK2 degradation in human Jurkat cells at 1 uM incubated for 6 hrs by Western blot analysis.
The target is the same in test [13]. The test can be described thus: Induction of TYK2 degradation in human Jurkat cells incubated for 24 hrs by Western blot analysis.
Test [14] shares this target. The test can be described thus: Induction of TYK2 degradation in human Jurkat cells at 10 uM incubated for 24 hrs by Western blot analysis relative to control.
Test [15] has the same target. The test can be described thus: Induction of TYK2 degradation in human Jurkat cells at 1 uM by Western blot analysis. Particulars: time 3-24 hrs, TDE = time-dependent effect.
Test [16] shares this target. In words: Induction of TYK2 degradation in human Jurkat cells assessed as reduction in TYK2 mRNA expression level up to 10 uM incubated for 6 to 24 hrs by quantitative-PCR analysis. The following applies: time 6-24 hrs.
Test [17] has the same target. The test can be described thus: Induction of TYK2 degradation in human Jurkat cells at 1 to 10 uM pretreated with MG-132 followed by compound treatment for 24 hrs by Western blot analysis. The following applies: dose 1-10 µM.

Activity calls are given as the source filed them. The calls are words filed in the database; no cut-off is given here. Where only a bound is given, the exact number is not on record here.

T2 sequence (P29597 whole entry): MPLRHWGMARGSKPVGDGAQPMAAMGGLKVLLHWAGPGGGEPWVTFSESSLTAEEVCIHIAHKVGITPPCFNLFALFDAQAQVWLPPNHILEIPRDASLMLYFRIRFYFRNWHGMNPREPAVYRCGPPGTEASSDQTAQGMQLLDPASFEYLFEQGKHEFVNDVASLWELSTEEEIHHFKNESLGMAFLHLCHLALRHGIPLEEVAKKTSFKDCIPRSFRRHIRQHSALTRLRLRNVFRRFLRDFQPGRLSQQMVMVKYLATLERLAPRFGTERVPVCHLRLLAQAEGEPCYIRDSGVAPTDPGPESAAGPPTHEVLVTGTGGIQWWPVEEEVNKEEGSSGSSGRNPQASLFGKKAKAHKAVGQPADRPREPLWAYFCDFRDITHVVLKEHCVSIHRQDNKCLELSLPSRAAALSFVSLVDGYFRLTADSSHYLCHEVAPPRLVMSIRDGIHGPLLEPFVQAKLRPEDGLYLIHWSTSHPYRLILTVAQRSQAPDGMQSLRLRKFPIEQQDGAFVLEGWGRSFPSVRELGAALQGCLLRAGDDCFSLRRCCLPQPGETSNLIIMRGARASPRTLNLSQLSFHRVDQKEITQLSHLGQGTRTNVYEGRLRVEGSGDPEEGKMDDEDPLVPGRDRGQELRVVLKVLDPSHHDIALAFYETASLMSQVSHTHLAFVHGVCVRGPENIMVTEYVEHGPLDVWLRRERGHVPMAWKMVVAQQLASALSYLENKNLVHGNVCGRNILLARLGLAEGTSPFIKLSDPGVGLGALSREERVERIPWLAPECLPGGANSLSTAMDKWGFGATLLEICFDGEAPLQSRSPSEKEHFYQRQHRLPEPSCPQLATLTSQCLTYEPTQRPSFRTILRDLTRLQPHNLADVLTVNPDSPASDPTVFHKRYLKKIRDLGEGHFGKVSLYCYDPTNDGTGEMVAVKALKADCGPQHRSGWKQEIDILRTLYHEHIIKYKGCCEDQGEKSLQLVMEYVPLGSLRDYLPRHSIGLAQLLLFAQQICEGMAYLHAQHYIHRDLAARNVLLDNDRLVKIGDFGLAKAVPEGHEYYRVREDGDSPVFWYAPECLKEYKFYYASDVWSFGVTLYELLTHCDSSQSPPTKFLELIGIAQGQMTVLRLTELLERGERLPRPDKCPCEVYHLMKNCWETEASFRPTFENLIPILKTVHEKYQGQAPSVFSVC
Chain of Tyrosine-protein kinase JAK2 (Homo sapiens) (O60674 whole entry): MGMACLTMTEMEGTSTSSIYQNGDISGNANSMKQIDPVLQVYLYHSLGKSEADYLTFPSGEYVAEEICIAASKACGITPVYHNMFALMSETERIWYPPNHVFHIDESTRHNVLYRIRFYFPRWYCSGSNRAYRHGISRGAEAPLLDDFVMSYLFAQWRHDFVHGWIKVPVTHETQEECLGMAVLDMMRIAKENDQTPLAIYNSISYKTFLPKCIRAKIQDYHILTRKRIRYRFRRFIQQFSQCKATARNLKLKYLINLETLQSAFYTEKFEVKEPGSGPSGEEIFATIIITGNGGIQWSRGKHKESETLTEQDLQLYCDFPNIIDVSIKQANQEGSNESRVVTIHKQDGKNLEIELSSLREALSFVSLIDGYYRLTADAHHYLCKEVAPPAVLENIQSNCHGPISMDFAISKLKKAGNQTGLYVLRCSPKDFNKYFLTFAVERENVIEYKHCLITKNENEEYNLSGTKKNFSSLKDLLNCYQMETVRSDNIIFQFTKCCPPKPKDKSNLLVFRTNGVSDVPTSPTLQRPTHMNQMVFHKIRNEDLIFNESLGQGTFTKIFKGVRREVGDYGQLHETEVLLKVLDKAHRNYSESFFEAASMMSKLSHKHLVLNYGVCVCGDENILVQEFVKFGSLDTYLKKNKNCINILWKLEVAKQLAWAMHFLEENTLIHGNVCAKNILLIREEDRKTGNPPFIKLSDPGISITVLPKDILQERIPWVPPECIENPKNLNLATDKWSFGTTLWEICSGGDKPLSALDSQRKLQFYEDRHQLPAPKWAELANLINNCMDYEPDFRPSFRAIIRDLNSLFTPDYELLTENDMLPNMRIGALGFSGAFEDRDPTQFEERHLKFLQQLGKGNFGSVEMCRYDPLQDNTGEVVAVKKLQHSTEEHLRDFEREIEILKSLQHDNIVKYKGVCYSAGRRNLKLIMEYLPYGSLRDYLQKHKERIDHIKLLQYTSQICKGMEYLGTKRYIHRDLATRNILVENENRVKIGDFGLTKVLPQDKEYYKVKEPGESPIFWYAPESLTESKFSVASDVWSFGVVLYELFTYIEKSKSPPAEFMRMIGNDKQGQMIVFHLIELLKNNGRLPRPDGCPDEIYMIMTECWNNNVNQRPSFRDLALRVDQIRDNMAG
T1 sequence (P23458 whole entry): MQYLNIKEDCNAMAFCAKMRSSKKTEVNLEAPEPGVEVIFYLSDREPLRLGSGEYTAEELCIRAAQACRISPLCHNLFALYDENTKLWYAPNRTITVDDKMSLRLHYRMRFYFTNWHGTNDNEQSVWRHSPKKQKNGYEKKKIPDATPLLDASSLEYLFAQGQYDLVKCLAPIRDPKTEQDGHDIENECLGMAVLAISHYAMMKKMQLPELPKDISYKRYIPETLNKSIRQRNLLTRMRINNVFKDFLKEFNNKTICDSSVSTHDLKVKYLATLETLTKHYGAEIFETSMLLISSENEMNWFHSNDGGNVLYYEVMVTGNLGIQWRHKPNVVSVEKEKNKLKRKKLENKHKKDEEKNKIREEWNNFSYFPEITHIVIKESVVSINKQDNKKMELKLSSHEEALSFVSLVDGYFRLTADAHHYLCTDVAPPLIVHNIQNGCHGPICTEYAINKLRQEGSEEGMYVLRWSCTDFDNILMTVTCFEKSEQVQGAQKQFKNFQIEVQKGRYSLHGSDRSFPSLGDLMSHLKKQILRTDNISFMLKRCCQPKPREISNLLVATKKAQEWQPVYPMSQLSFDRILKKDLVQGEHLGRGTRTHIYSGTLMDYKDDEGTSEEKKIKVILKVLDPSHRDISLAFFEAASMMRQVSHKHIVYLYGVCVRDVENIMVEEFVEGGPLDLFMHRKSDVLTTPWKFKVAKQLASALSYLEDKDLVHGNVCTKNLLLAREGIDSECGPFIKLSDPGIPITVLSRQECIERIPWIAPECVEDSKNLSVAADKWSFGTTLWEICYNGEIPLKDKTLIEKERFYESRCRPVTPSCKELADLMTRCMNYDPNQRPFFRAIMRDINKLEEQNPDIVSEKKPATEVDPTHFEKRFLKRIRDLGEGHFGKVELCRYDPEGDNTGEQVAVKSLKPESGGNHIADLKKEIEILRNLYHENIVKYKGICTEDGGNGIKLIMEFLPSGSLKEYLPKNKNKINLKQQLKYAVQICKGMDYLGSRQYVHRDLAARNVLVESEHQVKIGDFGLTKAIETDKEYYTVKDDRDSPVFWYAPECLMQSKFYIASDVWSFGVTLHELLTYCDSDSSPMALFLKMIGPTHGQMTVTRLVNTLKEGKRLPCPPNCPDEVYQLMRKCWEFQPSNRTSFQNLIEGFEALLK

Regarding `CNC(=O)c1cccc(Nc2cc(Nc3ccc(C(=O)NCCCCCCCCCC(=O)N[C@H](C(=O)N4C[C@H](O)C[C@H]4C(=O)NCc4ccc(-c5scnc5C)cc4)C(C)(C)C)cn3)ncc2C(N)=O)c1OC`, the result in test [1] was Active. Also, the 50% degradation concentration (DC50) in [2] came out at 23 nM; in test [4], 1100 nM. The Emax in test [3] is 85%; in [5], 49%.

As for `CNC(=O)c1cnc(Nc2ccc(C(=O)NCCCCCC(=O)N[C@H](C(=O)N3C[C@H](O)C[C@H]3C(=O)NCc3ccc(-c4scnc4C)cc3)C(C)(C)C)cn2)cc1Nc1cccc(C(=O)NC)c1OC`, the result in [1], in [6] and in test [7] was inactive.

Turning to `CNC(=O)c1cnc(Nc2ccc(F)cn2)cc1Nc1cccc(C(=O)NC)c1OC`, the result in [8] was Active.

In the case of `CNC(=O)c1cnc(Nc2ccc(C(=O)NCCCCCCCCC(=O)N[C@H](C(=O)N3C[C@H](O)C[C@H]3C(=O)NCc3ccc(-c4scnc4C)cc3)C(C)(C)C)cn2)cc1Nc1cccc(C(=O)NC)c1OC`, the outcome in test [1], in [6] and in [7] was inactive.

For the compound `CNC(=O)c1cnc(Nc2ccc(C(=O)NCCCCCCCC(=O)N[C@H](C(=O)N3C[C@H](O)C[C@H]3C(=O)NCc3ccc(-c4scnc4C)cc3)C(C)(C)C)cn2)cc1Nc1cccc(C(=O)NC)c1OC`, the result in [1], in test [6] and in test [7] was inactive.

Turning to `CNC(=O)c1cnc(Nc2ccc(C(=O)NCCCCCCCCCC(=O)N[C@H](C(=O)N3C[C@H](O)C[C@H]3C(=O)NCc3ccc(-c4scnc4C)cc3)C(C)(C)C)cn2)cc1Nc1cccc(-c2ncn(C)n2)c1OC`, the outcome in test [6] was Active. The DC50 in [2] is 14 nM; in test [4] it was at least 10000 nM. Moreover, the Emax in test [9] came out at 78%; in [10] it was 25%.

`CNC(=O)c1cnc(Nc2ccc(C(=O)NCCCC(=O)N[C@H](C(=O)N3C[C@H](O)C[C@H]3C(=O)NCc3ccc(-c4scnc4C)cc3)C(C)(C)C)cn2)cc1Nc1cccc(C(=O)NC)c1OC`: the result in test [1], in test [6] and in test [7] was Active.

For `Cc1ncsc1-c1ccc(CNC(=O)[C@@H]2C[C@@H](O)CN2C(=O)[C@@H](NC(=O)C2(C#N)CC2)C(C)(C)C)cc1`, in test [11], the outcome was inactive. For the same compound, the outcome in test [8] was Active.

For `CNC(=O)c1cnc(Nc2ccc(C(=O)NCCCCCCCCCCC(=O)N[C@H](C(=O)N3C[C@H](O)C[C@H]3C(=O)NCc3ccc(-c4scnc4C)cc3)C(C)(C)C)cn2)cc1Nc1cccc(C(=O)NC)c1OC`, the result in [1], in [6] and in test [7] was inactive.

Take `CNC(=O)c1cnc(Nc2ccc(C(=O)NCCCCCCCCCC(=O)N[C@H](C(=O)N3C[C@H](O)C[C@H]3C(=O)NCc3ccc(-c4scnc4C)cc3)C(C)(C)C)cn2)cc1Nc1cccc(C(=O)NC)c1OC`: the outcome in test [12], in test [11] and in test [17] was Active. The outcome in test [1], in [6], in [7] and in test [16] was inactive. In [13], this compound yielded a DC50 of 230 nM. Also, the Emax in test [14] worked out at 77%. Moreover, the Activity entry in test [15] was “Tde”.

For `CNC(=O)c1cnc(Nc2ccc(C(=O)NCCCCCCCCCCCC(=O)N[C@H](C(=O)N3C[C@H](O)C[C@H]3C(=O)NCc3ccc(-c4scnc4C)cc3)C(C)(C)C)cn2)cc1Nc1cccc(C(=O)NC)c1OC`, the outcome in test [1], in test [6] and in [7] was inactive.

Values taken from ChEMBL document CHEMBL5223147, “Discovery of a potent and subtype-selective TYK2 degrader based on an allosteric TYK2 inhibitor” (Bioorg Med Chem Lett, 2023).
